The assay concerns Histomonas meleagridis. The assay can be described thus: Growth and viability of in vitro cultivated Histomonas meleagridis. Particulars: for Histomonas meleagridis cells counted: extrudate corresponding to 200 μg tetra-hydro-iso-α-acid/ml, dimetridazole 400 μg/ml. Format: cell-based. The protocol: The effect of a tetra-hydro-iso-α-acids milled extrudate on the growth of Histomonas meleagridis in vitro was investigated. Therefore, a milled extrudate of tetra-hydro-iso-α-acids (corresponding to an amount of 200 μg tetra-hydro-iso-α-acid/ml), a positive control (dimetridazole, concentration of 400 μg/ml) and a negative control (distilled water without addition of any substance) were used. Histomonas meleagridis cells were counted before and after 24, 48 and 72 hours of incubation.

Each structure is given as a SMILES string.

In the case of `Cc1ncc([N+](=O)[O-])n1C` [Dimetridazole, dimetridazole], the “Histomonas meleagridis cells counted” value was 1 × 10^5 (0 h (before incubation)), 0 (24 h of incubation), 0 (48 h of incubation) and 0 (72 h of incubation). Further, the “Effect on Histomonas meleagridis cells (in words)” value (in vitro, versus negative control) is “total reduction”.

For the origin of these results see US20250262262A1, “a-ACID AND/OR B-ACID BASED COPOSITIONS FROM HUMULUS FOR USE IN A HUMAN AND/OR VETERINARY APPLICATION” (Orotech NV, priority 2022, published 2025).
